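Five compound concentrations were applied to cells in 96-well plates for 48 hours; endpoints were derived by simple linear interpolation of the resulting dose-response curve. GI50 = concentration required for 50% inhibition of growth. TGI: total growth inhibition.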
Experiments:
Experiment in all cases: NCI anticancer screen, dose series, 48 h
CCRF-CEM leukemia = tested on: CCRF-CEM leukemia
BT-549 breast = tested on: BT-549 breast
UACC-257 melanoma = tested on: UACC-257 melanoma
IGROV1 ovarian = tested on: IGROV1 ovarian
OVCAR-8 ovarian = tested on: OVCAR-8 ovarian
MCF7 breast = tested on: MCF7 breast
HT29 colon = tested on: HT29 colon
HCC-2998 colon = tested on: HCC-2998 colon
OVCAR-3 ovarian = tested on: OVCAR-3 ovarian
NCI-H522 lung = tested on: NCI-H522 lung
U251 CNS = tested on: U251 CNS
NCI-H460 lung = tested on: NCI-H460 lung
NCI/ADR-RES ovarian = tested on: NCI/ADR-RES ovarian
SK-MEL-2 melanoma = tested on: SK-MEL-2 melanoma
SW-620 colon = tested on: SW-620 colon
SN12C renal = tested on: SN12C renal
RPMI-8226 leukemia = tested on: RPMI-8226 leukemia
NCI-H226 lung = tested on: NCI-H226 lung
M14 melanoma = tested on: M14 melanoma
SK-MEL-28 melanoma = tested on: SK-MEL-28 melanoma
UO-31 renal = tested on: UO-31 renal
A549 NSCLC = tested on: A549 NSCLC
SF-539 CNS = tested on: SF-539 CNS
SK-MEL-5 melanoma = tested on: SK-MEL-5 melanoma
UACC-62 melanoma = tested on: UACC-62 melanoma
SNB-19 CNS = tested on: SNB-19 CNS
OVCAR-4 ovarian = tested on: OVCAR-4 ovarian
OVCAR-5 ovarian = tested on: OVCAR-5 ovarian
LOX IMVI melanoma = tested on: LOX IMVI melanoma
SK-OV-3 ovarian = tested on: SK-OV-3 ovarian
HS 578T breast = tested on: HS 578T breast
NCI-H23 lung = tested on: NCI-H23 lung
EKVX NSCLC = tested on: EKVX NSCLC
RXF 393 renal = tested on: RXF 393 renal
PC-3 prostate = tested on: PC-3 prostate
ACHN renal = tested on: ACHN renal
MDA-MB-435 = tested on: MDA-MB-435
COLO 205 colon = tested on: COLO 205 colon
MDA-MB-231 breast = tested on: MDA-MB-231 breast
786-0 renal = tested on: 786-0 renal
MOLT-4 leukemia = tested on: MOLT-4 leukemia
HOP-62 NSCLC = tested on: HOP-62 NSCLC
TK-10 renal = tested on: TK-10 renal
DU-145 prostate = tested on: DU-145 prostate
SF-268 CNS = tested on: SF-268 CNS
SNB-75 CNS = tested on: SNB-75 CNS
SF-295 CNS = tested on: SF-295 CNS
HCT-15 colon = tested on: HCT-15 colon
A498 renal = tested on: A498 renal
HOP-92 NSCLC = tested on: HOP-92 NSCLC
HCT-116 colon = tested on: HCT-116 colon
KM12 colon = tested on: KM12 colon
CAKI-1 renal = tested on: CAKI-1 renal
T-47D breast = tested on: T-47D breast
K-562 leukemia = tested on: K-562 leukemia

In the case of `N/C(=N/S(=O)(=O)c1cc(C(=O)Nc2ccc(F)cc2)c(Cl)cc1SCc1ccccc1)Nc1ccccc1O`, the GI50 (CCRF-CEM leukemia) is reported as 1.81 µM, the TGI (CCRF-CEM leukemia) is reported as 3.79 µM and the GI50 (BT-549 breast) is reported as 1.83 µM. For the same compound, the TGI (BT-549 breast) was 4.74 µM, the GI50 (UACC-257 melanoma) was 12.2 µM and the TGI (UACC-257 melanoma) was 26.7 µM. It also gave a GI50 (IGROV1 ovarian) of 1.88 µM, a TGI (IGROV1 ovarian) of 3.57 µM and a GI50 (OVCAR-8 ovarian) of 1.92 µM. It also gave a TGI (OVCAR-8 ovarian) of 4.14 µM, a GI50 (MCF7 breast) of 2.79 µM and a TGI (MCF7 breast) of 6.13 µM. It also gave a GI50 (HT29 colon) of 11 µM, a TGI (HT29 colon) greater than 100 µM and a GI50 (HCC-2998 colon) of 2.86 µM. For the same compound, the TGI (HCC-2998 colon) was 7.34 µM, the GI50 (OVCAR-3 ovarian) was 1.44 µM and the TGI (OVCAR-3 ovarian) was 2.81 µM. For the same compound, the GI50 (NCI-H522 lung) was 3.88 µM, the TGI (NCI-H522 lung) was 12.5 µM and the GI50 (U251 CNS) was 1.78 µM. The TGI (U251 CNS) was 3.22 µM, the GI50 (NCI-H460 lung) was 2.93 µM and the TGI (NCI-H460 lung) was 8.29 µM. For the same compound, the GI50 (NCI/ADR-RES ovarian) was greater than 100 µM, the TGI (NCI/ADR-RES ovarian) was greater than 100 µM and the GI50 (SK-MEL-2 melanoma) was 2.13 µM. The TGI (SK-MEL-2 melanoma) was 4.02 µM, the GI50 (SW-620 colon) was 1.88 µM and the TGI (SW-620 colon) was 3.54 µM. For the same compound, the GI50 (SN12C renal) was 1.88 µM, the TGI (SN12C renal) was 3.7 µM and the GI50 (RPMI-8226 leukemia) was 2.61 µM. The TGI (RPMI-8226 leukemia) was 6.1 µM, the GI50 (NCI-H226 lung) was 16.3 µM and the TGI (NCI-H226 lung) was 30.9 µM. It also gave a GI50 (M14 melanoma) of 3.87 µM, a TGI (M14 melanoma) of 14.4 µM and a GI50 (SK-MEL-28 melanoma) of 2.14 µM. It also gave a TGI (SK-MEL-28 melanoma) of 4.33 µM, a GI50 (UO-31 renal) of 17.3 µM and a TGI (UO-31 renal) of 37.4 µM. The GI50 (A549 NSCLC) was 2.36 µM, the TGI (A549 NSCLC) was 4.71 µM and the GI50 (SF-539 CNS) was 1.94 µM. For the same compound, the TGI (SF-539 CNS) was 4.23 µM, the GI50 (SK-MEL-5 melanoma) was 1.85 µM and the TGI (SK-MEL-5 melanoma) was 4.57 µM. It also gave a GI50 (UACC-62 melanoma) of 1.84 µM, a TGI (UACC-62 melanoma) of 3.43 µM and a GI50 (SNB-19 CNS) of 4.29 µM. It also gave a TGI (SNB-19 CNS) greater than 100 µM, a GI50 (OVCAR-4 ovarian) of 2.22 µM and a TGI (OVCAR-4 ovarian) of 5.14 µM. It also gave a GI50 (OVCAR-5 ovarian) of 16.4 µM, a TGI (OVCAR-5 ovarian) of 31.3 µM and a GI50 (LOX IMVI melanoma) of 1.76 µM. The TGI (LOX IMVI melanoma) was 3.41 µM, the GI50 (SK-OV-3 ovarian) was 2.06 µM and the TGI (SK-OV-3 ovarian) was 4.2 µM. The GI50 (HS 578T breast) was 1.72 µM, the TGI (HS 578T breast) was 3.8 µM and the GI50 (NCI-H23 lung) was 2.04 µM. It also gave a TGI (NCI-H23 lung) of 3.86 µM, a GI50 (EKVX NSCLC) of 1.81 µM and a TGI (EKVX NSCLC) of 4.46 µM. It also gave a GI50 (RXF 393 renal) of 1.93 µM, a TGI (RXF 393 renal) of 3.94 µM and a GI50 (PC-3 prostate) of 2.08 µM. It also gave a TGI (PC-3 prostate) of 4.61 µM, a GI50 (ACHN renal) of 18.9 µM and a TGI (ACHN renal) greater than 100 µM. For the same compound, the GI50 (MDA-MB-435) was 1.76 µM, the TGI (MDA-MB-435) was 3.19 µM and the GI50 (COLO 205 colon) was 4.1 µM. For the same compound, the TGI (COLO 205 colon) was greater than 100 µM, the GI50 (MDA-MB-231 breast) was 1.54 µM and the TGI (MDA-MB-231 breast) was 3.1 µM. It also gave a GI50 (786-0 renal) of 2.3 µM, a TGI (786-0 renal) of 6.01 µM and a GI50 (MOLT-4 leukemia) of 1.55 µM. It also gave a TGI (MOLT-4 leukemia) of 2.99 µM, a GI50 (HOP-62 NSCLC) of 2.04 µM and a TGI (HOP-62 NSCLC) of 4.52 µM. The GI50 (TK-10 renal) was 2.8 µM, the TGI (TK-10 renal) was 8.61 µM and the GI50 (DU-145 prostate) was 1.83 µM. It also gave a TGI (DU-145 prostate) of 3.56 µM, a GI50 (SF-268 CNS) of 2.12 µM and a TGI (SF-268 CNS) of 5.69 µM. It also gave a GI50 (SNB-75 CNS) of 1.96 µM, a TGI (SNB-75 CNS) of 3.84 µM and a GI50 (SF-295 CNS) of 1.95 µM. For the same compound, the TGI (SF-295 CNS) was 3.66 µM, the GI50 (HCT-15 colon) was 37.1 µM and the TGI (HCT-15 colon) was greater than 100 µM. For the same compound, the GI50 (A498 renal) was 16.3 µM, the TGI (A498 renal) was 30.5 µM and the GI50 (HOP-92 NSCLC) was 1.9 µM. It also gave a TGI (HOP-92 NSCLC) of 4.02 µM, a GI50 (HCT-116 colon) of 1.95 µM and a TGI (HCT-116 colon) of 4 µM. It also gave a GI50 (KM12 colon) of 1.79 µM, a TGI (KM12 colon) of 3.33 µM and a GI50 (CAKI-1 renal) of 23.8 µM. For the same compound, the TGI (CAKI-1 renal) was greater than 100 µM, the GI50 (T-47D breast) was 7.3 µM and the TGI (T-47D breast) was 28.6 µM. The GI50 (K-562 leukemia) was 1.33 µM and the TGI (K-562 leukemia) was 3.64 µM.

From PubChem BioAssay (NCI)
